Data set [1] deals with T1, human recombinant CCR4 receptor (Homo sapiens, UniProt P51679).
T1 construct: Brussels, Belgium; host or cells: CHO-K1
T1 sequence (P51679 1-360): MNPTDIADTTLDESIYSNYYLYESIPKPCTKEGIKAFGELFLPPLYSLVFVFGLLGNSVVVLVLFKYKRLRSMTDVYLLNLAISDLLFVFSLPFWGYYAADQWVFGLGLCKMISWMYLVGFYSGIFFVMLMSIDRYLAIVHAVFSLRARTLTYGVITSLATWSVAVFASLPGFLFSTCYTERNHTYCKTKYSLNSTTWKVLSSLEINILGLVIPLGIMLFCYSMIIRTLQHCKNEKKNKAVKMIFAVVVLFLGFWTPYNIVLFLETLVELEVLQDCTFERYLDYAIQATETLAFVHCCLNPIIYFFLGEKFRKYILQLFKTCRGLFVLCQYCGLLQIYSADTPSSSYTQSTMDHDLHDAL
The experiment in a line: FMAT Whole Cell Binding Assay (FB-MDC binding to CHO-K1 cells expressing CCR4). The note with it: CHO-K1 cells stably expressing human recombinant CCR4; inhibition of FB-MDC fluorescent probe binding, two hours incubation at room temperature. On the procedure:
FMAT Whole Cell Binding Assay
CHO-K1 cells stably expressing the human recombinant CCR4 receptor (Euroscreen; Brussels, Belgium) were cultured in NUT.MIX.F—12(HAM) medium with glutamax-1, containing 10% (v/v) foetal bovine serum and 400 μg ml^−1 geneticin.
Cells were harvested at approximately 70% confluence by treatment with a cell dissociation buffer, and seeded at 5×10^3 cells/100 μl culture medium into wells of a black Costar clear-bottomed 96-well microtitre plates. Plates were incubated overnight at 37° C. in 5% CO2 and used the following day.
Before use, the cell plates were washed twice with 100 μl Hanks balanced salt solution (HBSS). To each well was then added 65 μl of HBSS, 10 μL of 10% DMSO in HBSS±test compound and then 25 μL of 2.8 nM FB-MDC (Applied Biosystems). This fluorescent probe was prepared from a 10 μM stock in 0.08% (v/v) TFA/16% (v/v) acetonitrile, diluted into HBSS.
After two hours incubation in the dark at room temperature, the plates were analysed in an FMAT8100 reader (Applied Biosystems) to measure fluorescence that was associated with binding of FB-MDC to the cells. Compound activity was determined as an pIC50 [log(concentration of compound that results in 50% inhibition)], comparing fluorescence in control and background wells.
• Fluorescence (ctrl)=1200 • Fluorescence (bkg)=0

SMILES strings stand for the structures.

`Cc1cnc(NS(=O)(=O)c2ccc(Cl)s2)c(OCc2cccnn2)n1` [Example 24, 5-Chloro-N-[5-methyl-3-(3-pyridazinylmethoxy)-2-pyrazinyl]-2-thiophenesulphonamide] showed a melting point of 179 to 181 °C. On to `COc1nc(Br)cnc1NS(=O)(=O)c1ccc(Cl)s1` [Example 1, N-(5-Bromo-3-methoxy-2-pyrazinyl)-5-chloro-2-thiophenesulphonamide], for which the IC50 in data set [1] was 39.8 nM. `O=S(=O)(Nc1nc(Cl)cnc1OCc1ccco1)c1ccc(Cl)s1` [Example 20, 5-Chloro-N-[6 chloro-3-(2-furanylmethoxy)-2-pyrazinyl]-2-thiophenesulphonamide] yielded a melting point of 130 to 133 °C. Still for that read-out and setting: in the case of `COc1nc(C)c(C)nc1NS(=O)(=O)c1ccc(Cl)s1` [Example 27, 5-Chloro-N-(5,6-dimethyl-3-methoxy-2-pyrazinyl)-2-thiophenesulphonamide] it was 95 to 96 °C; in that of `COc1nc(SCCN)cnc1NS(=O)(=O)c1ccc(Cl)s1` [Example 30, N-[5-{(2-Aminoethyl)sulpanyl}-3-methoxy-2-pyrazinyl]-5-chloro-2-thiophenesulphonamide], 192 to 194 °C. As to `COCCOc1nc(Br)cnc1NS(=O)(=O)c1ccc(Cl)s1` [Example 16, 5-Chloro-N-[5-bromo-3-(2-methoxyethoxy)-2-pyrazinyl]-2-thiophenesulphonamide], the IC50 in data set [1] was 631 nM. On to `Cc1cnc(NS(=O)(=O)c2ccc(Cl)s2)c(OCc2cccnc2)n1` [Example 23, 5-Chloro-N-[5-methyl-3-(3-pyridinylmethoxy)-2-pyrazinyl]-2-thiophenesulphonamide], for which the melting point was 204 to 205 °C. Further, the IC50 in data set [1] is 10 nM. On to `COc1nccnc1NS(=O)(=O)c1ccc(Cl)s1` [Example 26, 5-Chloro-N-(3-methoxy-2-pyrazinyl)-2-thiophenesulphonamide], for which the melting point lay in the range of 119 to 120 °C. Still for that read-out and setting: next, `O=S(=O)(Nc1nccnc1OCc1ccccn1)c1ccc(Cl)s1` [Example 25, 5-Chloro-N-[3-(2-pyridinylmethoxy)-2-pyrazinyl]-2-thiophenesulphonamide]: 109 to 110 °C.

In the case of `O=S(=O)(Nc1nc(Cl)cnc1OCc1ccccn1)c1ccc(Cl)s1` [Example 22], the melting point was in the range of 171 to 172 °C. On the same count and under the same terms, next, `Cc1cc(COc2ncc(Cl)nc2NS(=O)(=O)c2ccc(Cl)s2)no1` [Example 21, 5-Chloro-N-[6-chloro-3-(5-methyl-3-isoxazolylmethoxy)2-pyrazinyl]-2-thiophenesulphonamide]: 141 to 142 °C. Same read-out and setting: next, `COc1nc(C#N)cnc1NS(=O)(=O)c1ccc(Cl)s1` [Example 31, 5-Chloro-N-[5-cyano-3-methoxy-2-pyrazinyl]-2-thiophenesulphonamide]: 218 to 219 °C.

Values taken from patent US7410972B2, “Compounds” (AstraZeneca AB, priority 2001, dated 2008).
